From patent US10448639B2, “Fungicidal pyrazoles” (FMC CORPORATION, priority 2009, dated 2019)
Read-outs that look alike come from different tables or passages of the source.

Tests used:
[1] = test system: Septoria tritici; test: Test G: wheat leaf blotch, preventive spray on wheat seedlings, visual disease rating; conditions: for Test G rating (% disease control) / Test G disease control rating: wheat leaf blotch, 100 = 100% disease control; for pest or weed control at 200 µg/mL: Zymoseptoria tritici, in Triticum aestivum, 504 h; for Test G disease control rating: sprayed the day before inoculation, 0 = no disease control relative to controls
[2] = test system: Puccinia recondita f. sp. tritici; test: Test H: wheat leaf rust, curative spray on inoculated wheat seedlings, visual disease rating; conditions: for Test H rating (% disease control) / Test H disease control rating: wheat leaf rust, 100 = 100% disease control; for pest or weed control at 200 µg/mL: 144 h; for Test H disease control rating: sprayed after inoculation, 0 = no disease control relative to controls
[3] = test system: Erysiphe graminis f sp. tritici; test: Test J: wheat powdery mildew, preventive spray on wheat seedlings, visual disease rating; conditions: for Test J rating (% disease control) / Test J disease control rating: wheat powdery mildew, 100 = 100% disease control; for pest or weed control at 200 µg/mL: Blumeria graminis, in Triticum aestivum, 192 h; for Test J disease control rating: sprayed the day before inoculation, 0 = no disease control relative to controls
[4] = test system: Puccinia recondita f. sp. tritici; test: Test I: wheat leaf rust, preventive spray on wheat seedlings, visual disease rating; conditions: for Test I rating (% disease control) / Test I disease control rating: wheat leaf rust, 100 = 100% disease control; for pest or weed control at 200 µg/mL: 192 h; for Test I disease control rating: sprayed the day before inoculation, 0 = no disease control relative to controls
[5] = test system: Septoria nodorum; test: Test F: Septoria glume blotch, preventive spray on wheat seedlings, visual disease rating; conditions: for Test F rating (% disease control) / Test F disease control rating: 100 = 100% disease control; for pest or weed control at 200 µg/mL: Parastagonospora nodorum, in Triticum aestivum, 192 h; for Test F disease control rating: 0 = no disease control relative to controls
[6] = test system: Alternaria solani; test: Test C: tomato early blight, preventive spray on tomato seedlings, visual disease rating; conditions: for Test C rating (% disease control) / Test C disease control rating: tomato early blight, 100 = 100% disease control; for pest or weed control at 200 µg/mL: Alternaria solani, in Solanum lycopersicum, 168 h; for Test C disease control rating: 0 = no disease control relative to controls
[7] = test system: Botrytis cinerea; test: Test B: tomato Botrytis, preventive spray on tomato seedlings, visual disease rating; conditions: for Test B rating (% disease control) / Test B disease control rating: tomato Botrytis, 100 = 100% disease control; for pest or weed control at 200 µg/mL: Botrytis cinerea, in Solanum lycopersicum, 120 h; for Test B disease control rating: 0 = no disease control relative to controls
From the text: General protocol for preparing test suspensions for Tests A-J: the test compounds were first dissolved in acetone in an amount equal to 3% of the final volume and then suspended at the desired concentration (in ppm) in acetone and purified water (50/50 mix by volume) containing 250 ppm of the surfactant Trem® 014 (polyhydric alcohol esters). The resulting test suspensions were then used in Tests A-J. Spraying a 200 ppm test suspension to the point of run-off on the test plants was the equivalent of a rate of 500 g/ha. Unless otherwise indicated, the rating values indicate a 200 ppm test suspension was used. (An asterisk “*” next to the rating value indicates a 40 ppm test suspension was used.)
The test suspension was sprayed to the point of run-off on tomato seedlings. The following day the seedlings were inoculated with a spore suspension of Botrytis cinerea (the causal agent of tomato Botrytis) and incubated in saturated atmosphere at 20° C. for 48 h, and then moved to a growth chamber at 24° C. for 3 additional days, after which time visual disease ratings were made.

[8] = preventive spray, 0 = no control
[9] = Septoria glume blotch on wheat, preventive spray, 0 = no control
[10] = read-out: Test G rating (% disease control)
[11] = read-out: Test H rating (% disease control)
[12] = read-out: Test J rating (% disease control)
[13] = read-out: Test I rating (% disease control)
[14] = read-out: Test F rating (% disease control)
[15] = read-out: Test C rating (% disease control)
[16] = read-out: Test B rating (% disease control)
[17] = read-out: Test G disease control rating
[18] = read-out: Test H disease control rating
[19] = read-out: Test J disease control rating
[20] = read-out: Test I disease control rating
[21] = read-out: Test F disease control rating
[22] = read-out: Test C disease control rating
[23] = read-out: Test B disease control rating
[24] = 0 = no control relative to controls
[25] = curative, 0 = no control relative to controls
[26] = preventive, 0 = no control relative to controls
[27] = Septoria glume blotch, 0 = no control relative to controls

Cc1nn(C)c(Oc2ccc(Cl)c(F)c2)c1-c1c(F)cc(F)cc1F [compound 129]
Test G rating (% disease control) [1, 8]: 96%
Test H rating (% disease control) ([2]; curative spray, 0 = no control): 0%
Test J rating (% disease control) [3, 8]: 0%
Test I rating (% disease control) [4, 8]: 0%
Test F rating (% disease control) [5, 9]: 0%
Test C rating (% disease control) [6, 8]: 0%
Test B rating (% disease control) [7, 8]: 99%

Cc1nn(C)c(Nc2c(F)cc(F)cc2F)c1-c1ccc(F)cc1F [Compound 41, 4-(2,4-difluorophenyl)-1,3-dimethyl-N-(2,4,6-trifluorophenyl)-1H-pyrazol-5-amine]
pest or weed control at 200 µg/mL [1, 10]: 94%
pest or weed control at 200 µg/mL [2, 11]: 0%
pest or weed control at 200 µg/mL [3, 12]: 99%
pest or weed control at 200 µg/mL [4, 13]: 100%
pest or weed control at 200 µg/mL [5, 14]: 90%
pest or weed control at 200 µg/mL [6, 15]: 99%
pest or weed control at 200 µg/mL [7, 16]: 100%

Cc1nn(C)c(Oc2ccc(C#N)cc2Cl)c1-c1c(F)cccc1F [Compound 358, 3-chloro-4-[[4-(2,6-difluorophenyl)-1,3-dimethyl-1H-pyrazol-5-yl]oxy]benzonitrile]
pest or weed control at 200 µg/mL [1, 17]: 100%
pest or weed control at 200 µg/mL [2, 18]: 0%
pest or weed control at 200 µg/mL [3, 19]: 97%
pest or weed control at 200 µg/mL [4, 20]: 97%
pest or weed control at 200 µg/mL [5, 21]: 0%
pest or weed control at 200 µg/mL [6, 22]: 0%
pest or weed control at 200 µg/mL [7, 23]: 99%

Cc1nn(C)c(Nc2c(F)cc(C#N)cc2F)c1-c1ccc(F)cc1Cl [Compound 91, 4-[[4-(2-chloro-4-fluorophenyl)-1,3-dimethyl-1H-pyrazol-5-yl]amino]-3,5-difluorobenzonitrile]
pest or weed control at 200 µg/mL [1, 10]: 99%
pest or weed control at 200 µg/mL [2, 11]: 0%
pest or weed control at 200 µg/mL [3, 12]: 100%
pest or weed control at 200 µg/mL [4, 13]: 100%
pest or weed control at 200 µg/mL [5, 14]: 95%
pest or weed control at 200 µg/mL [6, 15]: 99%
pest or weed control at 200 µg/mL [7, 16]: 100%

Cc1nn(C)c(Nc2ccc(F)cc2F)c1-c1c(F)cc(OS(=O)(=O)C(F)(F)F)cc1F [compound 105]
Test G rating (% disease control) [1, 8]: 73%
Test H rating (% disease control) ([2]; curative spray, 0 = no control): 9%
Test J rating (% disease control) [3, 8]: 72%
Test I rating (% disease control) [4, 8]: 0%
Test F rating (% disease control) [5, 9]: 0%
Test C rating (% disease control) [6, 8]: 0%
Test B rating (% disease control) [7, 8]: 23%

COc1cc(F)c(Nc2c(-c3c(F)cc(OC)cc3F)c(C)nn2C)c(F)c1 [compound 83]
Test G rating (% disease control) [1, 8]: 99%
Test H rating (% disease control) ([2]; curative spray, 0 = no control): 99%
Test J rating (% disease control) [3, 8]: 94%
Test I rating (% disease control) [4, 8]: 96%
Test F rating (% disease control) [5, 9]: 89%
Test C rating (% disease control) [6, 8]: 100%
Test B rating (% disease control) [7, 8]: 100%

Cc1nn(C)c(Oc2cc(F)c(C#N)cc2F)c1-c1ccc(F)cc1Br [compound 233]
Test G rating (% disease control) [1, 24]: 100%
Test H rating (% disease control) [2, 25]: 0%
Test J rating (% disease control) [3, 24]: 100%
Test I rating (% disease control) [4, 26]: 100%
Test F rating (% disease control) [5, 27]: 99%
Test C rating (% disease control) [6, 24]: 99%
Test B rating (% disease control) [7, 24]: 100%

COc1cc(F)c(-c2c(C)nn(C)c2Oc2c(F)cc(N)cc2F)c(F)c1 [compound 77]
Test G rating (% disease control) [1, 8]: 95%
Test H rating (% disease control) ([2]; curative spray, 0 = no control): 6%
Test J rating (% disease control) [3, 8]: 0%
Test I rating (% disease control) [4, 8]: 97%
Test F rating (% disease control) [5, 9]: 0%
Test C rating (% disease control) [6, 8]: 0%
Test B rating (% disease control) [7, 8]: 99%

Cc1nn(C)c(Nc2ccc(F)cc2Cl)c1-c1ccc(F)cc1Cl [Compound 175, N,4-bis(2-chloro-4-fluorophenyl)-1,3-dimethyl-1H-pyrazol-5-amine]
pest or weed control at 200 µg/mL [1, 10]: 96%
pest or weed control at 200 µg/mL [2, 11]: 93%
pest or weed control at 200 µg/mL [3, 12]: 100%
pest or weed control at 200 µg/mL [4, 13]: 99%
pest or weed control at 200 µg/mL [5, 14]: 82%
pest or weed control at 200 µg/mL [6, 15]: 99%
pest or weed control at 200 µg/mL [7, 16]: 100%

Cc1nn(C)c(Nc2ccc(F)cc2)c1-c1cccc(F)c1F [compound 205]
Test G rating (% disease control) [1, 24]: 99%
Test H rating (% disease control) [2, 25]: 0%
Test J rating (% disease control) [3, 24]: 100%
Test I rating (% disease control) [4, 26]: 91%
Test F rating (% disease control) [5, 27]: 0%
Test C rating (% disease control) [6, 24]: 17%
Test B rating (% disease control) [7, 24]: 100%

Cc1nn(C)c(Nc2c(F)cc(Cl)cc2F)c1-c1ccc(C#N)cc1Cl [Compound 336, 3-chloro-4-[5-[(4-chloro-2,6-difluorophenyl)amino]-1,3-dimethyl-1H-pyrazol-4-yl]-benzonitrile]
pest or weed control at 200 µg/mL [1, 17]: 100%
pest or weed control at 200 µg/mL [2, 18]: 94%
pest or weed control at 200 µg/mL [3, 19]: 99%
pest or weed control at 200 µg/mL [4, 20]: 100%
pest or weed control at 200 µg/mL [5, 21]: 95%
pest or weed control at 200 µg/mL [6, 22]: 97%
pest or weed control at 200 µg/mL [7, 23]: 100%

Cc1nn(C)c(Nc2ccc(F)cc2F)c1-c1c(F)cccc1Cl [compound 177]
Test G rating (% disease control) [1, 24]: 98%
Test H rating (% disease control) [2, 25]: 0%
Test J rating (% disease control) [3, 24]: 100%
Test I rating (% disease control) [4, 26]: 83%
Test F rating (% disease control) [5, 27]: 73%
Test C rating (% disease control) [6, 24]: 100%
Test B rating (% disease control) [7, 24]: 100%

Cc1nn(C)c(Oc2ncc(C(F)(F)F)cc2F)c1-c1ccc(F)cc1Br [compound 260]
Test G rating (% disease control) [1, 24]: 0%
Test H rating (% disease control) [2, 25]: 0%
Test J rating (% disease control) [3, 24]: 0%
Test I rating (% disease control) [4, 26]: 0%
Test F rating (% disease control) [5, 27]: 0%
Test C rating (% disease control) [6, 24]: 0%
Test B rating (% disease control) [7, 24]: 0%

Cc1ccc(-c2c(C)nn(C)c2Nc2c(F)cc(F)cc2F)cc1 [compound 79]
Test G rating (% disease control) [1, 8]: 99%
Test H rating (% disease control) ([2]; curative spray, 0 = no control): 0%
Test J rating (% disease control) [3, 8]: 0%
Test I rating (% disease control) [4, 8]: 55%
Test F rating (% disease control) [5, 9]: 0%
Test C rating (% disease control) [6, 8]: 0%
Test B rating (% disease control) [7, 8]: 99%

Cc1cc(Oc2c(-c3c(F)cc(F)cc3F)c(C)nn2C)ccc1[N+](=O)[O-] [compound 135]
Test G rating (% disease control) [1, 8]: 97%
Test H rating (% disease control) ([2]; curative spray, 0 = no control): 16%
Test J rating (% disease control) [3, 8]: 95%
Test I rating (% disease control) [4, 8]: 74%
Test F rating (% disease control) [5, 9]: 0%
Test C rating (% disease control) [6, 8]: 0%
Test B rating (% disease control) [7, 8]: 0%

COc1ccc(Nc2c(-c3c(Cl)cccc3Cl)c(C)nn2C)cc1 [compound 333]
Test G disease control rating [1]: 100%
Test H disease control rating [2]: 9%
Test J disease control rating [3]: 0%
Test I disease control rating [4]: 74%
Test F disease control rating ([5]; Septoria glume blotch on wheat): 0%
Test C disease control rating [6]: 0%
Test B disease control rating [7]: 100%

Cc1nn(C)c(Oc2c(F)cc(C#N)cc2F)c1-c1ccccc1F [compound 305]
Test G disease control rating [1]: 100%
Test H disease control rating [2]: 0%
Test J disease control rating [3]: 99%
Test I disease control rating [4]: 99%
Test F disease control rating ([5]; Septoria glume blotch on wheat): 94%
Test C disease control rating [6]: 99%
Test B disease control rating [7]: 99%

COc1cc(F)c(-c2c(C)nn(C)c2Oc2ccc(Br)c(C#N)c2)c(F)c1 [compound 258]
Test G rating (% disease control) [1, 24]: 89%
Test H rating (% disease control) [2, 25]: 0%
Test J rating (% disease control) [3, 24]: 90%
Test I rating (% disease control) [4, 26]: 68%
Test F rating (% disease control) [5, 27]: 0%
Test C rating (% disease control) [6, 24]: 9%
Test B rating (% disease control) [7, 24]: 41%

COc1ccc(-c2c(C)nn(C)c2Oc2c(F)cc(C#N)cc2F)c(F)c1 [compound 46]
Test G rating (% disease control) [1, 8]: 100%
Test H rating (% disease control) ([2]; curative spray, 0 = no control): 37%
Test J rating (% disease control) [3, 8]: 99%
Test I rating (% disease control) [4, 8]: 100%
Test F rating (% disease control) [5, 9]: 99%
Test C rating (% disease control) [6, 8]: 100%
Test B rating (% disease control) [7, 8]: 99%
